SMILES strings stand for the structures. Where a name gives a salt, the structure may show the parent alone. Read-outs that look alike come from different tables or passages of the source.

One assay concerns the target T1, β-lactamase P99 (Enterobacter cloacae, UniProt P05364).
T1 construct: The β-lactamases are isolated from bacterial strains resistant to penicillins and to cephalosporins; endogenous in cells; host or cells: E. cloacae 293HT6 (soluble fraction of French-press lysate, 100 000 G supernatant)
The assay is described as follows: biochemical. Format: biochemical. The procedure:
(§1) A. Preparation of the β-lactamases Tem˜1 and P99
(§2) The β-lactamases are isolated from bacterial strains resistant to penicillins and to cephalosporins (Tem1 and P99 are produced by E. coli 250HT21 and E. Cloacae 293HT6, respectively).
(§3) The bacteria are cultured in heart-brain broth at 37 g/l (DIFCO), at 37° C. They are harvested at the end of the exponential phase, cooled and centrifuged. The bacterial pellets are taken up in 50 mM sodium phosphate buffer pH 7.0 and again centrifuged. The bacteria are taken up in two volumes of this same buffer and lyzed by means of a French-Press kept at 4° C. After centrifugation for 1 h at 100 000 G, at 4° C., the supernatants containing the soluble fraction of the bacterial extracts are recovered and frozen at −80° C.
(§4) B. Determination of the β-lactamase Activity
(§5) The method uses, as substrate, Nitrocefin (OXOID), a chromogenic cephalosporin, whose product of hydrolysis by Beta-lactamases is red and absorbs at 485 nm. The β-lactamase activity is kinetically determined by measuring the variation in absorbance at 485 nm resulting from the hydrolysis of the substrate on a plate spectrophotometer (Spectra Max Plus from Molecular Devices). The experiments are performed at 37° C. The quantity of enzyme was normalized and the measurements are performed at the initial speed.
(§6) C. Determination of the β-lactamase Inhibiting Activity
(§7) Two measurements are carried out, without preincubation and with preincubation of the enzyme and of the inhibitor (5 min), in order to test the irreversibility of the reaction. The products are tested at 6 or 8 concentrations in duplicate. The reaction mixture contains 100 μM of Nitrocefin and 50 mM sodium phosphate buffer pH 7.0. D. Calculations of the IC50 Values
(§8) The rates of hydrolysis are measured with and without inhibitor. The concentration of inhibitor which inhibits by 50% the reaction of hydrolysis of Nitrocefin by the enzyme (IC50) is determined. The data processing is carried out with the aid of the GraFit software (Erathycus Software).

The target in a further assay is T2, β-lactamase TEM1 (Escherichia coli, UniProt P62593).
T2 construct: The β-lactamases are isolated from bacterial strains resistant to penicillins and to cephalosporins; endogenous in cells; host or cells: E. coli 250HT21 (soluble fraction of French-press lysate, 100 000 G supernatant)
T2 sequence (P62593 24-286 limits assumed): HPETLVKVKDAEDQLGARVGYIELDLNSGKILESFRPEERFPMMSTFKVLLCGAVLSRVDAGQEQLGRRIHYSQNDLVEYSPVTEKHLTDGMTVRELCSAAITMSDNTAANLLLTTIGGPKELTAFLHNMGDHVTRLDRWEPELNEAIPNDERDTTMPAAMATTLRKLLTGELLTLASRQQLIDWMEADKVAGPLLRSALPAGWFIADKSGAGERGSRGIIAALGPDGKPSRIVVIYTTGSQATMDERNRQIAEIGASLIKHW
The assay is described as follows: β-lactamase inhibiting activity (Nitrocefin hydrolysis). Format: biochemical, E. coli 250HT21. The procedure: as §1, §2, §3, §4, §5, §6, §7, §8

The mark [1] stands for this setting: 100 μM Nitrocefin, 50 mM sodium phosphate buffer pH 7.0, 37° C.
Setting [2] is: 100 μM Nitrocefin, 50 mM sodium phosphate buffer pH 7.0, 37° C., read-out: IC50 nM/TEM1.

T1 sequence (P05364 21-381): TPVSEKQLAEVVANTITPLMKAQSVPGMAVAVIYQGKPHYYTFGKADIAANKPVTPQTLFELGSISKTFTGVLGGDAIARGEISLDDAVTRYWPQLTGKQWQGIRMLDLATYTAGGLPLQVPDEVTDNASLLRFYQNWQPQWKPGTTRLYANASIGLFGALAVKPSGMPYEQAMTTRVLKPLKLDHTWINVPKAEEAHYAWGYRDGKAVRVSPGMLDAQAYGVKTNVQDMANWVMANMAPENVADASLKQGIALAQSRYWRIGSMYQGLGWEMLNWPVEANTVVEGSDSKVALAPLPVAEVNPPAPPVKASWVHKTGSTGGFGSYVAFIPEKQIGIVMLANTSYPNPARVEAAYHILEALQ

On to `COCCOCOc1ccc2c(c1)[C@@H]1CN(C(=O)N1OS(=O)(=O)O)[C@H]2C(=O)NOC` (relative stereo) [Example 33, Sodium Salt of Trans-1,2,3,5-tetrahydro-N-methoxy-8-[(2-methoxyethoxy)methoxy]-3-oxo-2-(sulfoxy)-1,4-methano-4H-2,4-benzodiazepine-5-carboxamide], for which the IC50 against β-lactamase P99 (setting [1]) amounted to 17 nM; at β-lactamase TEM1 (setting [2]), 56 nM.

Regarding `Cc1ccccc1-c1cc2c(s1)[C@@H](C(N)=O)N1C[C@H]2N(OS(=O)(=O)O)C1=O` (relative stereo) [Example 24, Sodium Salt of Trans-4,5,6,8-tetrahydro-2-(2-methylphenyl)-6-oxo-5-(sulfoxy)-4,7-methano-7H-thieno[2,3-e][1,3]diazepine-8-carboxamide], the IC50 was determined as 10 nM against β-lactamase P99 (setting [1]) and 2 nM on β-lactamase TEM1 (setting [2]).

For the compound `COC(=O)[C@@H]1c2c(cnn2C(N)=O)[C@@H]2CN1C(=O)N2OS(=O)(=O)O` (relative stereo) [Example 10, Pyridinium Salt of Methyl Trans-1-(aminocarbonyl)-4,5,6,8-tetrahydro-6-oxo-5-(sulfoxy)-1H-4,7-methanopyrazolo[3,4-e][1,3]diazepine-8-carboxylate], the IC50 against β-lactamase P99 (setting [1]) was found to be 18 nM; against β-lactamase TEM1, 12 nM.

Take `CCOC(=O)[C@@H]1c2c(-c3ccc(F)cc3)csc2[C@H]2CN1C(=O)N2OS(=O)(=O)O` (relative stereo) [Example 44, Sodium Salt of ethyl trans-3-(4-fluorophenyl)-4,6,7,8-tetrahydro-6-oxo-7-(sulfoxy)-5,8-methano-5H-thieno[2,3-e][1,3]diazepine-4-carboxylate]: the IC50 against β-lactamase P99 (pH 7) worked out at 2 nM; at β-lactamase TEM1 (setting [2]) it was 34 nM.

For `NC(=O)[C@H]1c2ccc(OCCOS(=O)(=O)O)cc2[C@@H]2CN1C(=O)N2OS(=O)(=O)O` (relative stereo) [Example 41, Disodium Salt of trans-1,2,3,5-tetrahydro-3-oxo-2-(sulfoxy)-8-[2-(sulfoxy)ethoxy]-1,4-methano-4H-2,4-benzodiazepine-5-carboxamide], the IC50 against β-lactamase P99 (setting [1]) worked out at 29 nM; at β-lactamase TEM1 (setting [2]), 9 nM.

In the case of `CCNC(=O)Oc1ccc2c(c1)[C@@H]1CN(C(=O)N1OS(=O)(=O)O)[C@H]2C(=O)OCC` (relative stereo) [Example 38, Sodium Salt of Ethyl Trans-8-[[(ethylamino)carbonyl]oxy]-1,2,3,5-tetrahydro-3-oxo-2-(sulfoxy)-1,4-methano-4H-2,4-benzodiazepine-5-carboxylate], the results for the IC50 against β-lactamase P99 (setting [1]) and at β-lactamase TEM1 (setting [2]) were 19 nM and 59 nM, respectively.

For `CCc1ccccc1-c1cc2c(s1)[C@@H](C(N)=O)N1C[C@H]2N(OS(=O)(=O)O)C1=O` (relative stereo) [Example 26, Sodium Salt of Trans-2-(2-ethylphenyl)-4,5,6,8-tetrahydro-6-oxo-5-(sulfoxy)-4,7-methano-7H-thieno[2,3-e][1,3]diazepine-8-carboxamide], the IC50 worked out at 6 nM against β-lactamase P99 (setting [1]) and 1 nM at β-lactamase TEM1 (setting [2]).

In the case of `COc1ccc(Cn2ncc3c2CN2CC3N(OS(=O)(=O)O)C2=O)cc1` (centres unmarked) [Example 18, Sodium Salt of 1,4,5,8-tetrahydro-1-[(4-methoxyphenyl)methyl]-5-(sulfoxy)-6H-4,7-methanopyrazolo[3,4-e][1,3]diazepin-6-one], the IC50 at β-lactamase P99 (setting [1]) came to 13 nM; at β-lactamase TEM1 (setting [2]), 5 nM.

As to `CCOC(=O)[C@H]1c2cccc(OC(=O)Nc3ccccc3)c2[C@@H]2CN1C(=O)N2OS(=O)(=O)O` (relative stereo) [Example 28, Sodium Salt of Ethyl Trans-1,2,3,5-tetrahydro-3-oxo-9-[[(phenylamino)carbonyl]oxy]-2-(sulfoxy)-1,4-methano-4H-2,4-benzodiazepine-5-carboxylate], the values for the IC50 on β-lactamase P99 (setting [1]) and on β-lactamase TEM1 (setting [2]) were 25 nM and 33 nM, respectively.

Take `NC(=O)[C@@H]1c2c(cnn2-c2ccccc2)[C@H]2CN1C(=O)N2OS(=O)(=O)O` (relative stereo) [Example 47, Sodium Salt of trans-4,5,6,8-tetrahydro-6-oxo-1-phenyl-5-(sulfoxy)-1H-4,7-methanopyrazolo[3,4-e][1,3]diazepine-8-carboxamide]: the IC50 against β-lactamase P99 (setting [1]) turned out to be 3 nM; on β-lactamase TEM1 (setting [2]), 12 nM.

Turning to `COC(=O)[C@@H]1c2nn(CC(=O)O)cc2[C@H]2CN1C(=O)N2OS(=O)(=O)O` (relative stereo) [Example 9, Di(triethylammonium) Salt of Trans-5,6-dihydro-8-(methoxycarbonyl)-6-oxo-5-sulfoxy-4H-4,7-methanopyrazolo[3,4-e][1,3]diazepine-2(8H)-acetic acid], the IC50 on β-lactamase P99 (setting [1]) came to 50 nM; at β-lactamase TEM1 (setting [2]), 60 nM.

For `COC(=O)[C@@H]1c2sc(C(N)=O)cc2[C@H]2CN1C(=O)N2OS(=O)(=O)O` (relative stereo) [Example 21, Sodium Salt of Methyl Trans-2-(aminocarbonyl)-4,5,6,8-tetrahydro-6-oxo-5-(sulfoxy)-4,7-methano-7H-thieno[2,3-e][1,3]diazepine-8-carboxylate], the IC50 amounted to 69 nM against β-lactamase P99 (setting [1]) and 7 nM at β-lactamase TEM1 (setting [2]).

For the compound `O=C1N2Cc3c(cnn3-c3ccccc3)C(C2)N1OS(=O)(=O)O` (centres unmarked) [Example 46, Sodium Salt of 1,4,5,8-tetrahydro-1-phenyl-5-(sulfoxy)-6H-4,7-methanopyrazolo[3,4-e][1,3]diazepin-6-one], the IC50 on β-lactamase P99 (setting [1]) came to 80 nM; against β-lactamase TEM1, 5 nM.

For `NC(=O)C1c2nn(-c3ccccc3)cc2C2CN1C(=O)N2OS(=O)(=O)O` (stereo not drawn) [Example 45, Sodium Salt of trans-2,5,6,8-tetrahydro-6-oxo-2-phenyl-5-(sulfoxy)-4H-4,7-methanopyrazolo[3,4-e][1,3]diazepine-8-carboxamide], the IC50 against β-lactamase P99 (setting [1]) came to 12 nM; on β-lactamase TEM1, 1 nM.

For the compound `NC(=O)[C@@H]1c2sc(-c3ccccc3C(F)(F)F)cc2[C@H]2CN1C(=O)N2OS(=O)(=O)O` (relative stereo) [Example 25, Sodium Salt of Trans-4,5,6,8-tetrahydro-6-oxo-5-(sulfoxy)-2-[2-(trifluoromethyl)phenyl]-4,7-methano-7H-thieno[2,3-e][1,3]diazepine-8-carboxamide], the IC50 is 6 nM against β-lactamase P99 (setting [1]) and 2 nM on β-lactamase TEM1 (setting [2]).

Take `NC(=O)C1c2nn(C(=O)Nc3ccccc3)cc2C2CN1C(=O)N2OS(=O)(=O)O` (centres unmarked) [Example 7, Triethylammonium Salt of 5,6-dihydro-6-oxo-N-2-phenyl-5-(sulfoxy)-4H-4,7-methanopyrazolo[3,4-e][1,3]diazepine-2,8(8H)-dicarboxamide]: the IC50 on β-lactamase P99 (setting [1]) amounted to 14 nM; at β-lactamase TEM1 (setting [2]), 1 nM.

For the origin of these results see patent US7439253B2, “Heterocyclic compounds, their preparation and their use as medicaments, in particular as antibacterials and beta-lactamase inhibitors” (Novexel, priority 2002, dated 2008).
